# Assay results as given in US20110289043A1, “COMPUTATIONAL METHODS AND COMPOSITIONS” (Brown University Research Foundation, priority 2010, published 2011).
# B1: CCL19: chemokine (R&D Systems) used as chemoattractant for T cells (protein, UniProt Q99731 22-98, looked up)
# C-C motif chemokine 19: GTNDAEDCCLSVTQKPIPGYIVRNFHYLLIKDGCRVPAVVFTTLRGRQLCAPPDQPWVERIIQRLQRTSAKMKRRSS
# Key:
# [1] = system: P. falciparum-infected RBCs (iRBCs) and co-cultured uninfected RBCs (uRBCs); assay: Microfluidic deformability (cell mobility) of RBCs after artesunate drug treatment; format: cell-based, human; details: for separation resolution between iRBCs and uRBCs: after artesunate drug treatment; for effect on RBC deformability (cell mobility): artesunate 0.01 to 0.1 μg/ml, 2, 4 and 6 hours
# Method: FIG. 60 provides cell mobility plots for both infected cells (shown by diamond symbols) and co-cultured uninfected cells (shown by circle symbols) with and without Artesunate drug treatment. The drug effect was traced at 2, 4 and 6 hours after drug treatment. Measurements were done at physiologically relevant dosage from 0.01 to 0.1 μg/ml.
# The deformability of both iRBCs and uRBCs were measured at 2, 4 and 6 hours after artesunate drug treatment (FIG. 60). A synchronized culture of rings with ˜15% parasitemia was resuspended at 0.1% hematocrit in malaria culture medium containing 0.01, 0.05 or 0.1 μg/ml of artesunate.
# P. falciparum 3D7A parasites (from Malaria Research and Reference Reagent Source, American Type Culture Collection) were cultured in leukocyte-free human RBCs (Research Blood Components, Brighton Mass.) in RPMI 1640 complete medium as described (Trager and Jensen J. parasitol. 2005). Parasites cultures were synchronized by sorbitol lysis (Lambros, C 1979 J. parasitol.) two hours after merozoite invasion.
# 1× Phosphate buffered saline (PBS) was mixed with 1% w/v Bovine Serum Albumin (BSA) (Sigma-Aldrich, St. Louis, Mo.) as a stock solution and was fresh made on every experimental day. For experiments tracking fluid flow velocity, 200 nm FluoSpheres europium luminescent microspheres (Molecular Probes, Eugene, Oreg.) were used at a final concentration of 5.0×10^−4 percent solids. For experiments involving only healthy RBCs, fresh whole blood (Research Blood Components, Brighton, Mass.) was used at 100 times dilution (i.e. 1 μl whole blood with 99 μl stock solution). For experiments involving parasitized cells, 1 ml of cultured cells were spun down at 1,000 rpm for 5 minute; 1 μl of the pellet was then aliquot to 200 μl stock solution.
# 10 μl of 1×10^−6M thiazole orange Orange (Invitrogen, Carlsbad, Calif.), which stains the RNA of the cell, was added to the aforementioned 200 μl iRBC solution 20 minutes before the experiment. The infected cells would appear fluorescent under the GFP filter set whereas the uninfected cells were seen as dark shadows.
# To control the ambient temperature, the microscope surface was replaced by a heating chamber (Olympus), which was preheated to a desired temperature range (i.e. 30-40° C.) for 30 minutes before the beginning of every experiment. Meanwhile, the PBS-BSA stock solution was injected into the device to coat the PDMS walls to prevent adhesion. This filling step need not be done inside the heating chamber, but the PBS-BSA filled device needed to be placed into the heating chamber at least 5 minutes before loading 10 μL of diluted blood sample. During temperature calibration phase, a thermal meter was used to probe the exact temperature inside the heating chamber. When the temperature needed to be adjusted to a different value, at least 5 minutes of waiting time was required to ensure a new stable ambient temperature.
# To apply a constant pressure gradient across the device, the pressure difference between inlet and outlet reservoir was generated hydrostatically by fixing the difference between inlet and outlet water column height (FIG. 55A).
# To capture the movement of RBCs inside the microchannels, a CCD camera (Hamamatsu Photonics, C4742-80-12AG, Japan) was connected to the inverted fluorescent microscope (Olympus IX71, Center Valley, Pa.). Images were automatically acquired by IPLab (Scanalytics, Rockville, Md.) at 100 ms time interval and the post-imaging analysis was done using imageJ. The mobility of individual RBCs was defined as the distance the cells moved divide by the time in seconds.
# RBCs = assay: Deformability cytometer: velocity/passage of glutaraldehyde-treated RBCs through constriction channels; format: cell-based, human
# Method: FIG. 5B depicts the results of an experiment evaluating the velocity at different glutaraldehyde concentrations of RBCs moving through the two pore geometries. RBCs were treated with the indicated concentrations of glutaraldehyde for 30 minutes in PBS and then washed 3 times. The pressure difference/length was approximately 0.61 Pa/μm.
# PBS was mixed with 0.2% w/v Pluronic F-108 (BASF, Mount Olive, N.J.) and 1% w/v Bovine Serum Albumin (BSA) (Sigma-Aldrich, St. Louis, Mo.) as a stock solution to prevent RBC adhesion to the device walls. For the fluorescent bead experiments, 200 nm FluoSpheres europium luminescent microspheres (Molecular Probes, Eugene, Oreg.) diluted to a final concentration of 1.25×10^−5 percent solids were used.
# In experiments involving blood, 1 μl of whole blood (−50% hematocrit) was diluted in 100 μl of the PBS-pluronic-BSA solution for all of the experiments. In experiments involving parasites that express GFP, no further treatment was performed. In experiments involving healthy RBCs, 1 μl of whole blood (Research Blood Components, Brighton, Mass.), 1 μl of 50 μg/ml of Cell Tracker Orange (Invitrogen, Carlsbad, Calif.), and 98 μl of PBS were mixed with the indicated concentration of glutaraldehyde and allowed to sit for 30 minutes. The sample was then washed 3 times with the PBS-Pluronic-BSA solution. In experiments involving reticulocytes, 1 μl of whole blood, 89 μl of the PBS-Pluronic-BSA solution, and 10 μl of 1×10^−6M thiazole orange were mixed and allowed to sit for 20 minutes before starting experiments. Videos were obtained in which reticulocytes appear as uniformly fluorescent cells under the GFP filter set, while mature RBCs appear as shadows.
# The PBS-Pluronic-BSA solution was pumped through the device for 30 minutes to coat the device walls with Pluronic and BSA. The RBC-PBS-Pluronic-BSA suspension was then injected into the device. Differences in pressure between the two reservoirs were generated hydrostatically by a difference in water column height. […]
# WT T cells [2] = assay: Micropipette aspiration of CCL19-stimulated migratory T cells; format: cell-based, mouse
# Method: Enriched WT and WAS−/− T cells in DMEM with 1% BSA and 0.1% Pen/Strep were induced to migrate through polycarbonate Transwell inserts (Costar, Cambridge, Mass.) with 5-μm pores in a 24-well plate toward a CCL19 chemokine source (R&D Systems, Minneapolis, Minn.). Inserts contained 5×10^5 cells in 100 μL of medium, and wells contained 1 mL of medium with either no CCL19 or 100 ng/mL of CCL19. Cells were allowed to migrate for ˜7 hours at 37° C., and those that crossed the membrane were collected and used for MPA studies.
# 3×10^5 cells in 100 μL RPMI with 10% FBS and 1% HEPES was stained with 10 μL trypan blue. The mixture was added to 600 μL of either the RPMI medium or the T cell activation medium with IL-2 for naïve and activated T cell testing. Migratory T cells were tested in the medium used for migration. The MPA device was based on the design of Hochmuth et al (18). The aspiration rate and volume were 36 mL/hr and 2 mL, corresponding to a total pressure of ˜400 Pa. The cell movement in the micropipette was recorded with a CCD camera. Aspirations were performed at approximately room temperature.
# MPA data were fitting using the half-space model (77) described by the expressions: […]
# WAS−/− T cells = assay: In vitro Transwell cell migration toward CCL19; format: cell-based, mouse; details: after seven hours of exposure to CCL19 (100 ng/mL), 5-μm pore Transwell
# Method: Cells from the peripheral lymph nodes and the spleen of Balb/c mice and WAS−/− mice on Balb/c background were pooled and enriched using the EasySep Mouse CD8+ T Cell Enrichment Kit from STEMCELL Technologies (British Columbia, Canada). Enrichment was confirmed using fluorescence-activated cell sorting (FACS) by staining the cells with FITC/anti-Thy1.2 and PE/anti-CD8α antibodies (Abs). The memory T cell population was assessed by evaluating the expression of CD44 and CD62L via FACS. T cells in an activation medium with 100 units/mL IL-2 and 1% anti-CD28 Ab were activated by plate-bound anti-CD3 Abs for 4 day at 37° C. The activation medium included RPMI with 10% FBS, 10 mM HEPES (1M), 1% NEAA, 1% sodium pyruvate (100 mM), 50 μM (β-mercaptoethanol, 4 mM L-glutamine, and 100 μg/mL Pen/Strep. Cell activation was verified via FACS measurement of CD25. Enriched WT and WAS−/− T cells in DMEM with 1% BSA and 0.1% Pen/Strep were induced to migrate through polycarbonate Transwell inserts (Costar, Cambridge, Mass.) with 5-μm pores in a 24-well plate toward a CCL19 chemokine source (R&D Systems, Minneapolis, Minn.). Inserts contained 5×10^5 cells in 100 μL of medium, and wells contained 1 mL of medium with either no CCL19 or 100 ng/mL of CCL19. Cells were allowed to migrate for ˜7 hours at 37° C., and those that crossed the membrane were collected and used for MPA studies.
# WT T cells [3] = assay: FACS analysis of phenotype of T cells induced to migrate by CCL19; format: cell-based, mouse; details: after CCL19 exposure (100 ng/mL) for seven hours
# Method: FIG. 68 depicts results of a FACS analysis of phenotype of naïve WT T cells induced to migrate by the chemokine CCL19. T cells were first gated on PI to exclude dead cells. The cell samples tested were naïve T cells not exposed to CCL 19 (A, D), cells that remained in the insert after CCL19 exposure (100 ng/mL) for seven hours (B, E), and cells that migrated across the insert membrane after the same chemokine treatment (C, F).
# Cells from the peripheral lymph nodes and the spleen of Balb/c mice and WAS−/− mice on Balb/c background were pooled and enriched using the EasySep Mouse CD8+ T Cell Enrichment Kit from STEMCELL Technologies (British Columbia, Canada). Enrichment was confirmed using fluorescence-activated cell sorting (FACS) by staining the cells with FITC/anti-Thy1.2 and PE/anti-CD8α antibodies (Abs). The memory T cell population was assessed by evaluating the expression of CD44 and CD62L via FACS. T cells in an activation medium with 100 units/mL IL-2 and 1% anti-CD28 Ab were activated by plate-bound anti-CD3 Abs for 4 day at 37° C. The activation medium included RPMI with 10% FBS, 10 mM HEPES (1M), 1% NEAA, 1% sodium pyruvate (100 mM), 50 μM (β-mercaptoethanol, 4 mM L-glutamine, and 100 μg/mL Pen/Strep. Cell activation was verified via FACS measurement of CD25.
molecule,measurement,setting,value
C[C@H]1[C@H](OC(=O)CCC(=O)O)O[C@@H]2O[C@@]3(C)CC[C@H]4[C@H](C)CC[C@@H]1[C@@]24OO3 [artesunate],mobility decrease,[1]; 2 and 4 hours after artesunate treatment,smaller and less pronounced mobility decrease
same,mobility decrease,"[1]; 6 hours after artesunate treatment, 0.01, 0.05 or 0.1 μg/ml",30%-50%
same,separation resolution between iRBCs and uRBCs,[1],almost doubled
same,separation resolution between iRBCs and uRBCs,[1]; listed as Artesunate,doubled
same,effect on RBC deformability (cell mobility),[1],stiffening effect on both iRBCs and uRBCs
same,effect on RBC deformability (cell mobility),[1]; listed as Artesunate,significant decrease in cell mobility
O=CCCCC=O [glutaraldehyde],RBC stiffness / velocity with increasing glutaraldehyde concentration,"RBCs; 30 minutes treatment in PBS, approximately 0.61 Pa/μm",progressively stiffer with decreasing velocity
same,RBC passage at high glutaraldehyde concentration,RBCs; glutaraldehyde concentrations greater than 0.003%,most RBCs were held up at the entrance to the channel
same,RBCs passed through the channels,"RBCs; glutaraldehyde concentrations less than 0.002%, treatment for 30 minutes",more than 95%
B1,reduction of modulus from the value measured in the absence of CCL19,WT T cells [2],more than 2 times
same,cells migrated,WAS−/− T cells,~6.4%
same,migrating cells stained CD62L high and CD44 low (naive phenotype),WT T cells [3],~90%
